Data: ChEMBL document CHEMBL4813985, “Lead optimization generates selenium-containing miconazole CYP51 inhibitors with improved pharmacological profile for the treatment of fungal infections” (Eur J Med Chem, 2021)
pIC50: −log10 of the molar value. Converted amounts (≈) assume the structure as drawn.

Experiments:
[1] = system: PC-3; assay: Cytotoxicity against human PC3 cells assessed as reduction in cell viability incubated for 96 hrs by MTT assay; assay type: cell-based; conditions: PC-3, 96 h, read-out: IC50
[2] = system: MDA-MB-231; assay: Cytotoxicity against human MDA-MB-231 cells assessed as reduction in cell viability incubated for 96 hrs by MTT assay; conditions: MDA-MB-231, 96 h
[3] = system: [Candida] zeylanoides; assay: Antifungal activity against Candida zeylanoides CMGCC2.3739 measured after 24 hrs by broth microdilution assay; assay type: functional; conditions: Dujonia zeylanoides
[4] = system: Nakaseomyces glabratus; assay: Antifungal activity against Candida glabrata measured after 24 hrs by broth microdilution assay; assay type: functional
[5] = system: Candida albicans; assay: Anti-biofilm activity in Candida albicans CPCC400616 assessed as inhibition of biofilm formation incubated for 24 hrs with 3 hrs precultured fungal suspension by XTT assay; assay type: functional
[6] = system: Candida albicans; assay: Antifungal activity against fluconazole-resistant Candida albicans 901 assessed as inhibition of microbial growth after 24 hrs by broth microdilution method; assay type: functional
[7] = system: MCF-10A; assay: Cytotoxicity against human MCF-10A cells assessed as reduction in cell viability incubated for 96 hrs by MTT assay; assay type: cell-based; conditions: read-out: IC50
[8] = Hemolytic activity in rabbit RBC assessed as hemolysis ratio at 1 ug/ml measured after 3 hrs by microplate reader assay relative to control; assay type: ADME, cell-based, Oryctolagus cuniculus, Erythrocyte; conditions: rabbit red blood cells (erythrocytes), at 1 µg/mL, read-out: Activity
[9] = system: Pichia kudriavzevii; assay: Antifungal activity against Candida krusei AS2.1045 measured after 24 hrs by broth microdilution assay; assay type: functional
[10] = system: Candida albicans; assay: Potency index, ratio of fluconazole MIC to test compound MIC for Candida albicans CPCC400616 measured after 24 hrs by broth microdilution assay; assay type: functional
[11] = Hemolytic activity in rabbit RBC assessed as hemolysis ratio at 8 ug/ml measured after 3 hrs by microplate reader assay relative to control; assay type: ADME, cell-based, Oryctolagus cuniculus, Erythrocyte; conditions: rabbit red blood cells (erythrocytes), at 8 µg/mL, read-out: Activity
[12] = system: Candida albicans; assay: Anti-biofilm activity in Candida albicans CPCC400616 assessed as inhibition of biofilm formation incubated for 24 hrs with 24 hrs precultured fungal suspension by XTT assay; assay type: functional
[13] = system: Candida albicans; assay: Antifungal activity against fluconazole-resistant Candida albicans CaR assessed as inhibition of microbial growth after 24 hrs by broth microdilution method; assay type: functional
[14] = Hemolytic activity in rabbit RBC assessed as hemolysis ratio at 4 ug/ml measured after 3 hrs by microplate reader assay relative to control; assay type: ADME, cell-based, Oryctolagus cuniculus, Erythrocyte; conditions: rabbit red blood cells (erythrocytes), at 4 µg/mL, read-out: Activity
[15] = system: Candida albicans; assay: Antifungal activity against Candida albicans CPCC400616 measured after 24 hrs by broth microdilution assay; assay type: functional
[16] = system: Candida albicans; assay: Antifungal activity against fluconazole-resistant Candida albicans 904 assessed as inhibition of microbial growth after 24 hrs by broth microdilution method; assay type: functional
[17] = system: Candida albicans; assay: Anti-biofilm activity in Candida albicans CPCC400616 assessed as inhibition of biofilm formation incubated for 24 hrs with 6 hrs precultured fungal suspension by XTT assay; assay type: functional
[18] = Metabolic stability in mouse liver microsomes assessed as clearance; assay type: ADME, Microsome; conditions: read-out: CLH
[19] = system: Candida albicans; assay: Antifungal activity against Candida albicans ATCC SC5314 measured after 24 hrs by broth microdilution assay; assay type: functional
[20] = system: Candida parapsilosis; assay: Antifungal activity against Candida parapsilosis ATCC 22019 measured after 24 hrs by broth microdilution assay; assay type: functional; conditions: Lodderomyces parapsilosis
[21] = Hemolytic activity in rabbit RBC assessed as hemolysis ratio at 2 ug/ml measured after 3 hrs by microplate reader assay relative to control; assay type: ADME, cell-based, Oryctolagus cuniculus, Erythrocyte; conditions: rabbit red blood cells (erythrocytes), at 2 µg/mL, read-out: Activity
[22] = system: Cryptococcus neoformans; assay: Antifungal activity against Cryptococcus neoformans CMGCC2.3161 measured after 72 hrs by broth microdilution assay; assay type: functional
[23] = system: Aspergillus fumigatus; assay: Antifungal activity against Aspergillus fumigatus CMGCC3.7795 measured after 72 hrs by broth microdilution assay; assay type: functional
[24] = system: HL-60; assay: Cytotoxicity against human HL-60 cells assessed as reduction in cell viability incubated for 96 hrs by MTT assay; assay type: cell-based; conditions: HL-60, 96 h
[25] = system: Candida albicans; assay: Antifungal activity against fluconazole-resistant Candida albicans 632 assessed as inhibition of microbial growth after 24 hrs by broth microdilution method; assay type: functional
[26] = system: Candida albicans; assay: Anti-biofilm activity in Candida albicans CPCC400616 assessed as inhibition of biofilm formation incubated for 24 hrs with 1.5 hrs precultured fungal suspension by XTT assay; assay type: functional
[27] = Hemolytic activity in rabbit RBC assessed as hemolysis ratio at 16 ug/ml measured after 3 hrs by microplate reader assay relative to control; assay type: ADME, cell-based, Oryctolagus cuniculus, Erythrocyte; conditions: rabbit red blood cells (erythrocytes), at 16 µg/mL, read-out: Activity
[28] = Metabolic stability in mouse liver microsomes assessed as half life; assay type: ADME, Microsome
[29] = system: Candida albicans; assay: Antifungal activity against fluconazole-resistant Candida albicans 17# assessed as inhibition of microbial growth after 24 hrs by broth microdilution method; assay type: functional

Structure (SMILES) | MIC [3] [µg/mL] | MIC [4] [µg/mL] | MIC [6] [µg/mL] | MIC [9] [µg/mL] | Ratio [10] | MIC [13] [µg/mL] | MIC [15] [µg/mL] | MIC [16] [µg/mL] | MIC [19] [µg/mL] | MIC [20] [µg/mL] | MIC [22] [µg/mL] | MIC [23] [µg/mL] | MIC [25] [µg/mL] | MIC [29] [µg/mL] | further results
CC(=O)O[C@H]1C(=O)[C@@]2(C)[C@H]([C@H](OC(=O)c3ccccc3)[C@]3(O)C[C@H](OC(=O)[C@H](O)[C@@H](NC(=O)c4ccccc4)c4ccccc4)C(C)=C1C3(C)C)[C@]1(OC(C)=O)CO[C@@H]1C[C@@H]2O [PACLITAXEL] | – | – | – | – | – | – | – | – | – | – | – | – | – | – | pIC50 [1]: > 7.60; pIC50 [2]: > 9.00
Fc1cccc([Se]C(Cn2ccnc2)c2ccc(Cl)cc2Cl)c1 (centres undefined) | 0.25 (≈ 0.604 µM) | 1 (≈ 2.41 µM) | 1 | 0.13 (≈ 0.314 µM) | 8 | 2 | 0.25 (≈ 0.604 µM) | 1 | 0.06 (≈ 0.145 µM) | 0.25 (≈ 0.604 µM) | 0.13 (≈ 0.314 µM) | 4 (≈ 9.66 µM) | 0.5 | 1 | MIC50 [5]: 8 µg/mL (≈ 19.3 µM); MIC80 [5]: 128 µg/mL (≈ 309 µM); pIC50 [7]: 4.54; hemolysis at 3 h, 1 ug/ml [8]: 0%; hemolysis at 3 h, 8 ug/ml [11]: 94.6%; MIC50 [12]: > 128 µg/mL; MIC80 [12]: > 128 µg/mL; hemolysis at 3 h, 4 ug/ml [14]: 87.7%; pIC50 [1]: 4.69; MIC50 [17]: 128 µg/mL (≈ 309 µM); MIC80 [17]: > 128 µg/mL; CLint scaled [18]: 531 mL/min/kg; hemolysis at 3 h, 2 ug/ml [21]: 0%; pIC50 [24]: 5.08; MIC50 [26]: 4 µg/mL (≈ 9.66 µM); MIC80 [26]: 16 µg/mL (≈ 38.6 µM); hemolysis at 3 h, 16 ug/ml [27]: 100%; half-life [28]: 10.3 min; pIC50 [2]: 4.87
Cc1cccc([Se]C(Cn2ccnc2)c2ccc(Cl)cc2Cl)c1 (centres undefined) | 0.25 (≈ 0.609 µM) | 1 (≈ 2.44 µM) | 1 | 0.06 (≈ 0.146 µM) | 8 | 1 | 0.25 (≈ 0.609 µM) | 1 | 0.03 (≈ 0.0731 µM) | 0.25 (≈ 0.609 µM) | 0.25 (≈ 0.609 µM) | 4 (≈ 9.75 µM) | 1 | 1 | –
Cc1ccc([Se]C(Cn2ccnc2)c2ccc(Cl)cc2Cl)cc1 (centres undefined) | 0.25 (≈ 0.609 µM) | 0.25 (≈ 0.609 µM) | 8 | 0.5 (≈ 1.22 µM) | 8 | 32 | 0.25 (≈ 0.609 µM) | 16 | 0.03 (≈ 0.0731 µM) | 0.5 (≈ 1.22 µM) | 0.13 (≈ 0.317 µM) | 8 (≈ 19.5 µM) | 4 | 4 | –
Cc1ccccc1[Se]C(Cn1ccnc1)c1ccc(F)cc1F (centres undefined) | 0.5 (≈ 1.33 µM) | 1 (≈ 2.65 µM) | 2 | 0.02 (≈ 0.053 µM) | 8 | 8 | 0.13 (≈ 0.345 µM) | 1 | 0.02 (≈ 0.053 µM) | 0.13 (≈ 0.345 µM) | 0.5 (≈ 1.33 µM) | 8 (≈ 21.2 µM) | 4 | 4 | –
COc1ccc([Se]C(Cn2ccnc2)c2ccc(F)cc2F)cc1 (centres undefined) | 0.25 (≈ 0.636 µM) | 0.5 (≈ 1.27 µM) | 2 | 0.5 (≈ 1.27 µM) | 8 | 2 | 1 (≈ 2.54 µM) | 8 | 0.03 (≈ 0.0763 µM) | 0.25 (≈ 0.636 µM) | 0.5 (≈ 1.27 µM) | 8 (≈ 20.3 µM) | 16 | 16 | –
Fc1ccc(C(Cn2ccnc2)[Se]c2ccccc2)c(F)c1 (centres undefined) | 0.25 (≈ 0.688 µM) | 1 (≈ 2.75 µM) | 2 | 0.25 (≈ 0.688 µM) | 8 | 1 | 0.5 (≈ 1.38 µM) | 1 | 0.02 (≈ 0.0551 µM) | 0.06 (≈ 0.165 µM) | 0.5 (≈ 1.38 µM) | 2 (≈ 5.51 µM) | 2 | 4 | –
Cc1cccc([Se]C(Cn2ccnc2)c2ccc(F)cc2F)c1 (centres undefined) | 0.5 (≈ 1.33 µM) | 1 (≈ 2.65 µM) | 4 | 0.06 (≈ 0.159 µM) | 8 | 4 | 0.25 (≈ 0.663 µM) | 1 | 0.03 (≈ 0.0795 µM) | 0.25 (≈ 0.663 µM) | 0.25 (≈ 0.663 µM) | 8 (≈ 21.2 µM) | 0.5 | 8 | –
